Experiment [1] concerns resistant L1210 murine leukemia cells. Description: Multiple drug resistance, 3H-Thymidine uptake. The class given is cell-based. The following applies: Mus musculus, L1210, read-out: IC50 in Resistant Cells. Here is the method: (§1) Multiple drug resistance (MDR) was tested in vitro using resistant and sensitive L1210 murine leukemia cells.
(§2) The final concentration of daunorubicin in each well was 0, 0.3, 1, 3, 10, 30, 100 or 1000 ng/ml. […] Fifty microliters of each daunorubicin concentration was added to one well of a flat bottom 96-well culture plate. […] Each drug combination was tested in triplicate.
(§3) The resistant and sensitive cells to be added to each well were grown overnight in a CO2 incubator at 37° C. in RPMI-1640 (10% fetal calf serum and 1% pen-strep). The cells were centrifuged at 1000 rpm for 10 minutes. The cell pellet was resuspended in RPMI-1640 (20% fetal calf serum and 2% pen-strep) and adjusted to 1×10^5 cells/ml. The cells were then added to the wells (100 μl (1×10^4 cells)/well) containing the drug combinations and incubated for 24 hours at 37° C. in a CO2 incubator. Positive control wells contained only cells and media and negative control wells contained cells, media, and 20 μl of 1.5M Tris buffer.
(§4) After 20 hours of incubation, the cells were pulsed with 0.5μ Cu of ^3 H-Thymidine per well. The samples were incubated for another 4 hours. The cells in each well were then harvested using a Skatron Harvester and counted in a beta liquid scintillation counter (LKB).

The subject of experiment [2] is sensitive L1210 murine leukemia cells. Description: Multiple drug resistance, 3H-Thymidine uptake. It is filed as cell-based. The following applies: Mus musculus, daunorubicin alone. Here is the method: as §1, §2, §3, §4

The term IC50 denotes the point on the concentration scale where inhibition reaches its midpoint.

On to `COc1cccc2c1C(=O)c1c(O)c3c(c(O)c1C2=O)C[C@@](O)(C(C)=O)C[C@@H]3O[C@H]1C[C@H](N)[C@H](O)[C@H](C)O1` [Daunorubicin], for which the IC50 amounted to 0.722 µg/mL in experiment [1] and 0.47 µg/mL in experiment [2].

The values are drawn from patent US5683714A, “Liposomal cyclosporin pharmaceutical formulation” (NeXstar Pharmaceuticals, Inc., priority 1995, dated 1997).
